Reference: article PMC12097374 (Bioconjugate chemistry, 2017)

Key:
C6 rat glioma cells = assay: Confocal cell imaging and displacement in live C6 rat glioma cells; assay type: cell-based; conditions: 0.1 μM probe 29, 100-fold higher concentration (10 μM) of competitor
TSPO = TSPO (Rattus norvegicus, UniProt P16257); conditions: cited from earlier work

| Compound | displacement of fluorescent probe 29 in C6 glioma cells (C6 rat glioma cells) | fold enhancement in affinity compared with DPA-714 (TSPO) [fold] |
| --- | --- | --- |
| CCC(C)N(C)C(=O)c1cc2ccccc2c(-c2ccccc2Cl)n1 (stereo not drawn) [PK 11195] | completely displaced |  |
| CCc1cc(CC)n2nc(-c3ccc(OCCF)cc3)c(CC(=O)N(CC)CC)c2n1 [VUIIS 1008, 2-(5,7-diethyl-2-(4-(2-fluoroethoxy)phenyl)-pyrazolo[1,5-a]pyrimidin-3-yl)-N,N-diethylacetamide] | completely displaced | 36 |
